# In patent US20050107432A1, “Sigma receptor binder containing indanone derivative” (priority 2002, published 2005):
# Where a name gives a salt, the structure may show the parent alone.
# Biological target: Sigma receptor
# Experiment: Sigma receptor binding assay (3H-DTG, guinea pig brain crude membrane fraction)
# Conditions: inhibition of 3H-DTG binding to guinea pig brain crude membrane fraction, 25° C., 1 hour
# Description: Sigma Receptor Binding Assay
# (1) Preparation of Receptor
# Ten male guinea pigs (Crj, Hartley, from Charles River Japan, Inc.) (body weight: 234 g to 260 g) were decapitated, exsanguinated and died. The brain was immediately removed, homogenized with ten volumes of 50 mM Tris-HCl (pH 7.4) using a Teflon homogenizer and was centrifuged at a rate of 50000× g at 4° C. for 20 minutes. The washing procedure was repeated once more under the same conditions, and the resulting crude membrane fraction was subjected to the assay.
# The filter paper was transferred to a vial for radioactivity measurement, mixed with 5 mL of a liquid scintillation cocktail (Atomlight, from PACKARD), and the radioactivity on the filter was determined by a liquid scintillation counter (Model 1500, from PACKARD) for 2 minutes. The specific binding and the non-specific binding in the absence of the test compound were determined in the same way as above except for using 50% DMSO solution instead of the test compound and using a 100 μM Haloperidol solution instead of the test compound, respectively.
# (3) Determination of Inhibition
# The inhibitions of the test compound at individual concentrations were determined from the ratio of the specific binding in the presence of the test compound to the specific binding in the absence thereof. The dose-response curve was regressed according to a logit-log model in which the ratio of the specific binding in the presence of the test compound to the specific binding in the absence thereof was subjected to logit transformation and plotted against the common logarithm value of each concentration.
row,SMILES,IC50 [nM]
1,"CCOc1cc2c(cc1OC)CC(CC1CCN(Cc3ccccc3)CC1)C2=O (centres unmarked) [Example 1, 1-benzyl-4-[(6-ethoxy-5-methoxy-1-indanon)-2-yl]methylpiperidine hydrochloride]",5.1
2,"CCOc1cc2c(cc1OC)CC(F)(CC1CCN(Cc3ccccc3)CC1)C2=O (centres unmarked) [Example 37, 1-benzyl-4-[(6-ethoxy-2-fluoro-5-methoxy-1-indanon)-2-yl]methylpiperidine hydrochloride]",4.3
3,"CCOc1cc2c(cc1OCC)C(=O)C(Cl)(CC1CCN(Cc3ccccc3)CC1)C2.Cl (centres unmarked) [Example 68, 1-Benzyl-4-[(5,6-diethoxy-2-chloro-1-indanon)-2-yl]methylpiperidine hydrochloride]",2.6

# Same assay, conditions: result in words, no value given
row,SMILES,sigma receptor binding action
1,"COc1cc2c(cc1OC)C(=O)C(Cl)(CC1CCN(Cc3ccccc3)CC1)C2.Cl (centres unmarked) [Example 67, 1-Benzyl-4-[(5,6-dimethoxy-2-chloro-1-indanon)-2-yl]methylpiperidine hydrochloride]",found to have a sigma receptor binding action
2,"CCOc1cc2c(cc1OCC)C(=O)C(Cl)(CC1CCN(Cc3ccccc3)CC1)C2.Cl (centres unmarked) [Example 68, 1-Benzyl-4-[(5,6-diethoxy-2-chloro-1-indanon)-2-yl]methylpiperidine hydrochloride]",found to have a sigma receptor binding action
3,"CCOc1cc2c(cc1OC)C(=O)C(Cl)(CC1CCN(Cc3ccccc3)CC1)C2.Cl (centres unmarked) [Example 69, 1-Benzyl-4-[(5-ethoxy-6-methoxy-2-chloro-1-indanon)-2-yl]methylpiperidine hydrochloride]",found to have a sigma receptor binding action
4,"COc1cc2c(cc1OC)C(=O)C(Br)(CC1CCN(Cc3ccccc3)CC1)C2.Cl (centres unmarked) [Example 70, 1-Benzyl-4-[(5,6-dimethoxy-2-bromo-1-indanon)-2-yl]methylpiperidine hydrochloride]",found to have a sigma receptor binding action
5,"COc1cc2c(cc1OC)C(=O)C(C)(CC1CCN(Cc3ccccc3)CC1)C2.Cl (centres unmarked) [Example 71, 1-Benzyl-4-[(5,6-dimethoxy-2-methyl-1-indanon)-2-yl]methylpiperidine hydrochloride]",found to have a sigma receptor binding action

# Biological target: T1, acetylcholinesterase (Rattus norvegicus, UniProt P37136)
# T1 construct: from tissue; host or cells: rat brain homogenate
# T1 sequence (P37136 32-614): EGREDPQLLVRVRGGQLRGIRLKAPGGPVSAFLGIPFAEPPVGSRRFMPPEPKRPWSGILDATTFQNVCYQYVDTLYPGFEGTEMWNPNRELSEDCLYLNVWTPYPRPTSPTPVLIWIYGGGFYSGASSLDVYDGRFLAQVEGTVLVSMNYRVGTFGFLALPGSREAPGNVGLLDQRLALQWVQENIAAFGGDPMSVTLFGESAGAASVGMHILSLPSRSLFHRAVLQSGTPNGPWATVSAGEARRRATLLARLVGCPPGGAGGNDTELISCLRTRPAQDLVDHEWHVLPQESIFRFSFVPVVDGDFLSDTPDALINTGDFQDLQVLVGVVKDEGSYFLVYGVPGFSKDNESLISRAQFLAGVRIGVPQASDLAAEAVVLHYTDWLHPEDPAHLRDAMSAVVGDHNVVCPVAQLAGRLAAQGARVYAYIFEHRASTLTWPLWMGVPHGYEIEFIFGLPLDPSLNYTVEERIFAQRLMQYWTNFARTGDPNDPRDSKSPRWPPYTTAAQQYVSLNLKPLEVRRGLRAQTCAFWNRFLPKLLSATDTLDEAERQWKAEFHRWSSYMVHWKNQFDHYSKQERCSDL
# Experiment: Inhibitory effect on acetylcholinesterase (Ellman method, rat brain homogenate)
# Type: biochemical
# Conditions: rat brain homogenate as source of acetylcholinesterase; read-out: Acetylcholinesterase inhibition IC50
# Description: Inhibitory Effect on Acetylcholinesterase
# To DTNB (5,5′-dithiobis(2-nitrobenzoic acid)), acethylthiocholine (as a substrate) and a test compound was added the rat brain homogenate and incubated.
row,SMILES,IC50 [nM]
1,"CCOc1cc2c(cc1OC)CC(CC1CCN(Cc3ccccc3)CC1)C2=O (centres unmarked) [Example 1, 1-benzyl-4-[(6-ethoxy-5-methoxy-1-indanon)-2-yl]methylpiperidine hydrochloride]",7.2
2,"CCCOc1cc2c(cc1OC)C(=O)C(CC1CCN(Cc3ccccc3)CC1)C2 (centres unmarked) [Example 2, 1-benzyl-4-[[5-methoxy-6-(1-propyloxy)-1-indanon]-2-yl]methylpiperidine hydrochloride]",2.7
3,"COc1cc2c(cc1OCC#N)CC(CC1CCN(Cc3ccccc3)CC1)C2=O (centres unmarked) [Example 7, 1-benzyl-4-[(5-cyanomethoxy-6-methoxy-1-indanon)-2-yl]methylpiperidine hydrochloride]",2.4
4,"CCOc1cc2c(cc1OCC)C(=O)C(CC1CCN(Cc3cccc(F)c3)CC1)C2 (centres unmarked) [Example 9, 1-(3-fluorobenzyl)-4-[(5,6-diethoxy-1-indanon)-2-yl]methylpiperidine hydrochloride]",3.4
5,"CCOc1cc2c(cc1OCC)C(=O)C(CC1CCN(Cc3cccc(C)c3)CC1)C2 (centres unmarked) [Example 15, 1-(3-methylbenzyl)-4-[(5,6-diethoxy-1-indanon)-2-yl]methylpiperidine hydrochloride]",9.1
6,"CCOc1cc2c(cc1OC)CC(F)(CC1CCN(Cc3ccccc3)CC1)C2=O (centres unmarked) [Example 37, 1-benzyl-4-[(6-ethoxy-2-fluoro-5-methoxy-1-indanon)-2-yl]methylpiperidine hydrochloride]",0.73
7,"CCOc1cc2c(cc1OC)C(=O)C(F)(CC1CCN(Cc3ccccc3)CC1)C2 (centres unmarked) [Example 38, 1-benzyl-4-[(5-ethoxy-2-fluoro-6-methoxy-1-indanon)-2-yl]methylpiperidine hydrochloride]",0.28
8,"CCOc1cc2c(cc1OCC)C(=O)C(F)(CC1CCN(Cc3cccc(Cl)c3)CC1)C2 (centres unmarked) [Example 44, 1-(3-chlorobenzyl)-4-[(5,6-diethoxy-2-fluoro-1-indanon)-2-yl]methylpiperidine hydrochloride]",0.75
9,"CCOc1cc2c(cc1OCC)C(=O)C(F)(CC1CCN(Cc3cccc(C)c3)CC1)C2 (centres unmarked) [Example 47, 1-(3-methylbenzyl)-4-[(5,6-diethoxy-2-fluoro-1-indanon)-2-yl]methylpiperidine hydrochloride]",1
10,"CCOc1cc2c(cc1OCC)C(=O)C(F)(CC1CCN(CC3CCCCC3)CC1)C2 (centres unmarked) [Example 50, 1-cyclohexylmethyl-4-[(5,6-diethoxy-2-fluoro-1-indanon)-2-yl]methylpiperidine hydrochloride]",1.9

# Test system: sigma receptor
# Experiment: not given
# Conditions: disclosed in J. Med. Chem. 37, 364 (1994), Neuroscience Lett. 260, 5 (1999), JP-A 11-349481; cited from earlier work
row,SMILES,sigma receptor binding action
1,"COc1cc2c(cc1OC)C(=O)C(C1CCN(Cc3ccccc3)CC1)C2 (centres unmarked) [1-benzyl-4-(5,6-dimethoxy-1-indanon)-2-yl]piperidine]",has a sigma receptor binding action
2,"COc1cc2c(cc1OC)C(=O)C(CC1CCN(Cc3ccccc3)CC1)C2 (centres unmarked) [1-benzyl-4-[(5,6-dimethoxy-1-indanon)-2-yl]methylpiperidine]",has a sigma receptor binding action
